Laboratory results: patent publication US6358984B1, “2,4-dioxopyrrolidine and 2,4-dioxotetrahydrofuran derivatives and medicines containing the same as the active ingredient” (Lead Chemical Co., Ltd., priority 1996, dated 2002)
Read-outs that look alike come from different tables or passages of the source.

Key:
[1] = test system: hypertension caused by angiotensin II; assay: Inhibition effect in the hypertension caused by angiotensin II using rats; type: in vivo, rat; conditions: i. v., male SD rats, angiotensin II 100 ng/kg; for inhibition in vivo at 1 mg/kg: Rattus norvegicus, iv
Procedure: Male SD rats (age; 11 weeks; 310 to 330 g) Were used, and indwelling cannula were placed in the femoral aorta and the vena cava, under anesthesia with inactin. The arterial cannula was connected to a pressure transducer to record the blood pressure via a carrier amplifier (AP-601G Japan Photoelectronics) using a polygraph system (RM-6000 Japan Photoelectronics). Prior to tests using the test compounds, 100 ng/kg-equivalent angiotensin II (50 μl of serum solution from the rat) was administered using a regular-pulse cannula to check the hypertensive action. Then, 30 minutes later, a 1 mg/kg-equivalent test compound (50 μl of serum solution from the rat) was administered using the regular-pulse cannula, and similar administration of angiotensin II was performed 5 and 60 minutes later to check the corresponding hypertensive action. The hypertensive effect resulting from the administration of only angiotensin II was taken as a reference value of 100% to determine the antihypertensive rates of the test compounds.

aortae of guinea pigs = assay: Inhibition of vascular contraction caused by angiotensin II using pieces of the aortae of guinea pigs; type: cell-based; conditions: guinea pig chest aorta, contraction induced by angiotensin II, read-out: Vascular contraction inhibition effect IC50
Procedure: Male Hartly guinea pigs (350 to 400 g) were contused on the head and sacrificed by allowing their blood to discharge from the arteria carotis communis. Immediately after death, the chest aorta was removed. A spiral sample of width 2 to 3 mm and length 20 to 25 mm was cut from the aorta, and was suspended in 4.5 ml of Krebs-Henseleit (K-H) solution (120 mM NaCl, 4.7 mM KCl, […], 1.2 mM KH2PO4, 2.5 mM CaCl2, 25 mM NaHCO3, and 10 mM glucose) in a Magnus vessel. The K-H solution in the Magnus vessel was maintained at 37° C., and a mixture gas of 95% O2 and 5% CO2 was continuously bubbled through the solution. First, 1 g of initial tension was applied to the sample, which was then left to stand rest for about 30 minutes, and 45 μl of 4M KCl solution was added to the solution to induce contraction. After contraction had stabilized, a washing operation was performed to replace the K-H solution. Then, after the sample was left to stand for 30 minutes, 45 μl of solvent DMSO was added to incubate the sample for 15 minutes, and 45 μl of angiotensin II solution (3×10^−8M) was added to induce contraction. This operation was repeated three times and 100% contraction was used as the average. Subsequently, the sample was stabilized by washing. Then, a 45 μl sample of each test compound prepared for each concentration (3×10^−5M to 10^−7M) using DMSO as a solvent was used to observe the inhibition effect of angiotensin II on vascular contraction by performing the same operation as described above. The contraction reaction was recorded on a recorder (RTA-1100, Japan Photoelectronics) via an equi-scale pressure transducer (TB-651T, Japan Photoelectronics). The angiotensin II inhibition effects of the test compounds were evaluated using the IC50 value.

angiotensin II receptor = biological target: T1, angiotensin II receptor (Oryctolagus cuniculus, UniProt P34976); assay: Binding inhibition of 3H labeled angiotensin II to angiotensin II receptor membrane fraction; design: species or system rabbit; conditions: rabbit adrenal gland membrane, 3H labeled angiotensin II 10^-9M; read-out: Receptor binding inhibition effect IC50
T1 construct: fraction of angiotensin II receptor membrane ([…]) prepared from rabbit adrenal gland; from tissue; host or cells: rabbit adrenal gland membrane fraction
T1 sequence (P34976 1-359): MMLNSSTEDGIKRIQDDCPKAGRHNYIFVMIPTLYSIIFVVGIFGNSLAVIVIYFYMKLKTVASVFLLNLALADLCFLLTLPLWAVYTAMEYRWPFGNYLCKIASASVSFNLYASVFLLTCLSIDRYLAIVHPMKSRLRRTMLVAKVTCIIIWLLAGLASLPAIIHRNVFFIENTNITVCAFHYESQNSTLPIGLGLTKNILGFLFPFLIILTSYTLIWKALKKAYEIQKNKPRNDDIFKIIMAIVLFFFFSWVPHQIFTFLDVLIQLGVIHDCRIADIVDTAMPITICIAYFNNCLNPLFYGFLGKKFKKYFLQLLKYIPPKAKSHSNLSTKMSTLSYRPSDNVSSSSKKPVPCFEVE
Procedure: The method of Cox et. al (Biochemical Pharmacology 33, 4057-4064 (1984) was modified to conduct angiotensin II receptor binding inhibition experiments. The present compounds (10^−5M to 10^−9M) and ^3H labeled angiotensin II (10^−9M) were added to a fraction of angiotensin II receptor membrane ([…]) prepared from rabbit adrenal gland and were allowed to react in a 20 mM Tris HCl buffer (pH: 7.0) containing 120 mM NaCl, 5 mM EDTA, 0.1 mM PMSF, and 0.2% BSA at 30° C. for 20 minutes so that the final volume was 540 μl. Then, the reaction mixture was quickly passed through a filter (whatman GF/B), and the filter was then rinsed three times in 4 ml of the buffer cooled in ice. Then, the radioactivity of receptor binding ^3H labeled angiotensin II captured on the filter was measured using a liquid scintillation counter. The angiotensin II receptor binding inhibition activity of the present compounds was evaluated based on the concentration (IC 50) required to replace 50% of the total amount of specifically binding ^3H labeled angiotensin II.

[2] = 5 min, 5 minutes after administration, read-out: Inhibition effect in the hypertension by angiotensin II, 5 minutes after administration
[3] = 1 h, 60 minutes after administration, read-out: Inhibition effect in the hypertension by angiotensin II, 60 minutes after administration

Row | Compound | Inhibition effect in the hypertension by angiotensin II, 5 minutes after administration ([1]; 1 mg/kg, 5 minutes after administration) | Inhibition effect in the hypertension by angiotensin II, 60 minutes after administration ([1]; 1 mg/kg, 60 minutes after administration) | IC50 (aortae of guinea pigs) | melting point | IC50 (angiotensin II receptor) | inhibition in vivo at 1 mg/kg [1, 2] | inhibition in vivo at 1 mg/kg [1, 3] | IC50 (aortae of guinea pigs; Cavia porcellus)
1 | 5-Butyl-3-(3-fluorophenyl)-1-[2′-[(4-hydroxy-2(5H)-furanone-5(Z)-ylidene)methyl]biphenyl-4-yl]methyl-1H-1,2,4-triazole [Compound 2h] | + (30% > + ≧ 10%) | − (10% > −) | 220 µM | – | – | – | – | –
2 | CCCc1nc(CCC)n(Cc2ccc(-c3ccccc3/C=C3\NC(=O)CC3=O)cc2)n1 [Compound 1a, 3,5-Dipropyl-1-[2′-[(2,4-dioxopyrrolidine-5(Z)-ylidene)methyl]biphenyl-4-yl]methyl-1H-1,2,4-triazole] | – | – | – | 179 to 180 °C | 220 nM | 30 to 70% | < 10% | > 300 µM
3 | CC(C)c1nc(C(C)C)n(Cc2ccc(-c3ccccc3/C=C3\NC(=O)CC3=O)cc2)n1 [Compound 1b, 3,5-Diisopropyl-1-[2′-[(2,4-dioxopyrrolidine-5-(Z)-ylidene)methyl]biphenyl-4-yl]methyl-1H-1,2,4-triazole] | – | – | – | 141 to 142 °C | > 7000 nM | – | – | > 300 µM
4 | CCCCc1nc(C2CC2)nn1Cc1ccc(-c2ccccc2/C=C2\NC(=O)CC2=O)cc1 [Compound 1c, 5-Butyl-3-cyclopropyl-1-[2′-[(2,4-dioxopyrrolidine-5(Z)-ylidene)methyl]biphenyl-4-yl]methyl-1H-1,2,4-triazole] | – | – | – | 166 to 168 °C | 2000 nM | – | – | > 300 µM
5 | CCCCc1nc(-c2ccccc2)nn1Cc1ccc(-c2ccccc2/C=C2\NC(=O)CC2=O)cc1 [Compound 1e, 5-Butyl-3-phenyl-1-[2′-[(2,4-dioxopyrrolidine-5(Z)-ylidene)methyl]biphenyl-4-yl]methyl-1H-1,2,4-triazole] | – | – | – | 180 to 181 °C | > 6300 nM | – | – | > 300 µM
6 | CCCCc1nc(CCc2ccccc2)nn1Cc1ccc(-c2ccccc2/C=C2\NC(=O)CC2=O)cc1 [Compound 1f, 5-Butyl-3-(2-phenylethyl)-1-[2′-[(2,4-dioxopyrrolidine-5(Z)-ylidene)methyl]biphenyl-4-yl]methyl-1H-1,2,4-triazole] | – | – | – | 188 to 189 °C | 150 nM | 30 to 70% | 30 to 70% | 87.9 µM
7 | CCCCc1nc(-c2ccc(F)cc2)nn1Cc1ccc(-c2ccccc2/C=C2\NC(=O)CC2=O)cc1 [Compound 1g, 5-Butyl-3-(4-fluorophenyl)-1-[2′-[(2,4-dioxopyrrolidine-5(Z)-ylidene)methyl]biphenyl-4-yl]methyl-1H-1,2,4-triazole] | – | – | – | 188 to 190 °C | > 6100 nM | – | – | > 300 µM
8 | CCCCc1nc(-c2ccccc2F)nn1Cc1ccc(-c2ccccc2/C=C2\NC(=O)CC2=O)cc1 [Compound 1h, 5-Butyl-3-(2-fluorophenyl)-1-[2′-[(2,4-dioxopyrrolidine-5(Z)-ylidene)methyl]biphenyl-4-yl]methyl-1H-1,2,4-triazole] | – | – | – | 169 to 170 °C | 4500 nM | – | – | > 300 µM
9 | CCCCc1nc(-c2ccncc2)nn1Cc1ccc(-c2ccccc2/C=C2\NC(=O)CC2=O)cc1 [Compound 1i, 5-Butyl-3-(pyridine-4-yl)-1-[2′-[(2,4-dioxopyrrolidine-5(Z)-ylidene)methyl]biphenyl-4-yl]methyl-1H-1,2,4-triazole] | – | – | – | 144 to 145 °C | > 6300 nM | – | – | > 300 µM
10 | CCCCc1nc(-c2ccco2)nn1Cc1ccc(-c2ccccc2/C=C2\NC(=O)CC2=O)cc1 [Compound 1j, 5-Butyl-3-(furan-2-yl)-1-[2′-[(2,4-dioxopyrrolidine-5(Z)-ylidene)methyl]biphenyl-4-yl]methyl-1H-1,2,4-triazole] | – | – | – | 169 to 170 °C | 2200 nM | – | – | > 300 µM
11 | CCCCc1nc(-c2cccs2)nn1Cc1ccc(-c2ccccc2/C=C2\NC(=O)CC2=O)cc1 [Compound 1k, 5-Butyl-3-(thiophene-2-yl)-1-[2′-[(2,4-dioxopyrrolidine-5(Z)-ylidene)methyl]biphenyl-4-yl]methyl-1H-1,2,4-triazole] | – | – | – | 186 to 187 °C | 4200 nM | – | – | > 300 µM
12 | CCCc1nc(CCC)n(Cc2ccc(-c3ccccc3/C=C3\OC(=O)C=C3O)cc2)n1 [Compound 2a, 3,5-Dipropyl-1-[2′-[(4-hydroxy-2(5H)-furanone-5(Z)-ylidene)methyl]biphenyl-4-yl]methyl-1H-1,2,4-triazole] | – | – | – | 160 to 161 °C | 110 nM | 30 to 70% | < 10% | 16.9 µM
13 | CC(C)c1nc(C(C)C)n(Cc2ccc(-c3ccccc3/C=C3\OC(=O)C=C3O)cc2)n1 [Compound 2b, 3,5-Diisopropyl-1-[2′-[(4-hydroxy-2(5H)-furanone-5(Z)-ylidene)methyl]biphenyl-4-yl]methyl-1H-1,2,4-triazole] | – | – | – | 191 to 193 °C | 930 nM | – | – | > 300 µM
14 | CCCCc1nc(-c2ccc(F)cc2)nn1Cc1ccc(-c2ccccc2/C=C2\OC(=O)C=C2O)cc1 [Compound 2g, 5-Butyl-3-(4-fluorophenyl)-1-[2′-[(4-hydroxy-2(5H)-furanone-5(Z)-ylidene)methyl]biphenyl-4-yl]methyl-1H-1,2,4-triazole] | – | – | – | 175 to 176 °C | 690 nM | – | – | > 300 µM
15 | CCCCc1nc(-c2cccc(F)c2)nn1Cc1ccc(-c2ccccc2/C=C2\OC(=O)C=C2O)cc1 [Compound 2h, 5-Butyl-3-(3-fluorophenyl)-1-[2′-[(4-hydroxy-2(5H)-furanone-5(Z)-ylidene)methyl]biphenyl-4-yl]methyl-1H-1,2,4-triazole] | – | – | – | 184 to 185 °C | – | – | – | –
16 | CCCCc1nnc(CCCC)n1Cc1ccc(-c2ccccc2/C=C2\NC(=O)CC2=O)cc1 [Compound 19a] | – | – | – | 185 to 186 °C | 8000 nM | – | – | > 300 µM
17 | CCCCc1nnc(CCCC)n1Cc1ccc(-c2ccccc2/C=C2\OC(=O)C=C2O)cc1 [Compound 19b, 3,5-Dibutyl-1-[2′-[(4-hydroxy-2(5H)-furanone-5(Z)-ylidene)-methyl]biphenyl-4-yl]methyl-4H-1,2,4-triazole] | – | – | – | – | 680 nM | – | – | > 300 µM
